Literature values in US7956090B2, “Composition and method for increasing the anabolic state of muscle cells” (priority 2007, dated 2011).

Key:
[1] = condensation and cyclization upon dissolution in water
[2] = about 1.5 g daily after intense exercise for 42 days

| SMILES | stability in aqueous solution [1] | delayed onset muscle soreness [2] | total lean soft tissue mass [2] |
| --- | --- | --- | --- |
| CC(=O)C(=O)O [pyruvate, pyruvic acid] | poor stability | – | – |
| CC(C)CC(O)C(=O)O (stereo not drawn) [HICA, 2-hydroxy-4-methylvaleric acid] | – | little to no delayed onset muscle soreness | statistically significant increase |
